Measurements as given in patent US4677069A, “Clam derived proteinases” (priority 1984, dated 1987).

Assays:
Hemoglobin [1] = details: pH 2.0, 37° C., Sigma lot; cited from earlier work
casein = assay: Relative ratio of clotting to proteolytic activity, casein; format: biochemical; details: 30° C., pH 6.2 of milk clotting assay, calf rennet = 1.00
Procedure: (§1) The clotting activity of milk coagulants was determined according to the method of Berridge, with modifications (1952, The Analyst, 77: 57). To 0.05 ml (unless otherwise mentioned) of milk coagulant placed in a 25-ml test tube was added 10 ml of tempered substrate solution. The substrate solution was 10% reconstituted skim milk powder containing 10 mM CaCl2. The pH of this substrate solution was approximately 6.2. Where indicated, the pH of the substrate solution was adjusted with 0.5 N NaOH or HCl while agitating. The mixture of coagulant and substrate was then incubated at 30° C. water bath unless specifically indicated. Near the expected clotting time, which was determined by a preliminary test, the test tube was tilted ~60° at an interval of 5 seconds. The moment of the first flake appearance of the liquid flowing down the tube was recorded as milk clotting time.
(§2) Milk coagulants were assayed for proteolytic activity according to the method described in Example 1.
(§3) The ratio of milk clotting activity to proteolytic activity against hemoglobin is often used to assess the suitability of enzymes as rennet substitute (Green, 1972, supra). Clam rennet had considerably lower ratio of clotting to […] activity at optimum pH of each individual enzyme. […]

Hemoglobin [2] = assay: Relative ratio of clotting to proteolytic activity, hemoglobin; format: biochemical; details: 30° C., optimum pH of each enzyme (in parentheses), calf rennet = 1.00
Procedure: as §1, §2, §3

[3] = Milk clotting time determination; format: biochemical
Procedure: as §1

## Porcine pepsin: two-time crystallized and lyophilized powder of porcine pepsin (Sigma Co.)
Hemoglobin [1]
  specification of the pepsin lot: 2900 units/mg solid
casein
  relative ratio of clotting to proteolytic activity, Casein: 0.24
Hemoglobin [2]
  relative ratio of clotting to proteolytic activity, Hemoglobin: 0.30
[3]; 1/tc vs C, equation 3-3
  Linear regression X-Intercept (Table 17): 0.0019
  Linear regression Y-Intercept (Table 17): -0.00013
[3]; 1/tc vs C, equation 3-3, FIG. 7
  Linear regression Slope (Table 17): 0.06597
[3]; clotting time tc vs 1/C, equation 3-2
  Linear regression Slope (Table 16): 16.5
[3]; milk pH 6.8 or above
  milk clotting at pH 6.8 or above: unable to clot milk
[3]; tc vs 1/C, equation 3-2
  Linear regression X-Intercept (Table 16): 1.9
  Linear regression Y-Intercept (Table 16): -8.7
